According to patent publication US11685733B2, “Compounds for treating Rac-GTPase mediated disorder” (Children's Medical Center Corporation, priority 2018, dated 2023):
“Also recorded” adds a separate entry of the source.

Legend:
[1] = Relative weight of mice during the efficacy study; format: in vivo; details: 10 mg/kg and 100 mg/kg, normalized to average weight before treatment
Experimental: (§1) Bioluminecence imaging (BLI) analysis was performed by treating a mouse model (8 mice) of human leukemia (P12 xenograft) with two different doses of Compound 1 (i.e., 10 and 100 mg/kilogram of body weight) using the formulation obtained in Example 2. P12 cells were transduced with a vector encoding for Luciferase and mCherry as a fluorescent marker. Treatment was started 5 days after inoculation of the cell line, and carried out by oral gavage for 18 days twice a day. Mice were imaged twice a week to obtain a quantification of the disease burden.

[2] = system: mononuclear bone marrow cells from WT mice; experiment: Colony forming unit assay (CFU assay) for toxicity; format: cell-based
Experimental: The formulation obtained in Example 2 was used for evaluating the toxicity of Compound 1 in a colony forming unit assay (CFU assay), which was performed by plating mononuclear bone marrow cells from WT mice in methylcellulose media supplemented with different doses of Compound 1, NSC23766, and DMSO. The number of colonies formed in each condition was scored 7 days after plating.

SEM cell line = experiment: Flow based Annexin V apoptosis and cell death assay; set-up: species or system human; details: Annexin V kit
Description: Compound 1 was further analyzed for its effect on cell apoptosis and cell death using a flow based assay using Annexin V kit.

P12 xenograft = experiment: Anti-leukemia activity in mouse model of human leukemia (bioluminescence imaging, mCherry cells in bone marrow); format: in vivo, mice; details: 10 mg/kg and 100 mg/kg
Experimental: as §1

Rac = experiment: Pull down assay of Rac activation with Western blot; format: cell-based, human; details: SEM cell line
Experimental: Further, a biochemical pull down assay using the SEM cell line was performed to confirm specific inhibition of Rac activation by Compound 1 as indicated by disruption of the interaction between Rac and GTPase. The assay initially required treatment of cells followed by pull down and analysis with Western blot. The cells were first starved in serum free media for 2 hours. They were then re-suspended in serum-containing medium. NSC23766 and Compound 1 were added at desired concentrations. Following incubation for the desired length of time, the cells were pelleted and lysed with Magnesium Lysis Buffer (Millipore Mg^2+ lysis/wash buffer).

[3] = system: SEM, RS4,11, and P12 leukemia cell lines; experiment: Inhibition of proliferation in three leukemia cell lines; format: cell-based; details: Homo sapiens; range over SEM, RS4,11 and P12 cell lines
Experimental: Compound 1 was assayed for inhibition of proliferation in three leukemia cell lines, i.e., (1) SEM, (2) RS4,11, and (3) P12 by […]. The cells for the proliferation assay were spun down and re-suspended. The cell suspension was then divided and Compound 1 was added in desired concentrations and subsequently plated. Following an incubation period, the […] (Promega CellTiter 96® Aqueous Non-Radioactive Cell Proliferation Assay) was added and allowed to incubate. The absorbance is subsequently measured at 490 nm using a plate reader.

[4] = system: P12 cells with NRAS G12D mutation
[5] = system: sensitive leukemic cell lines; experiment: Induction of apoptosis in leukemic cell lines

Structure (SMILES) | relative weight of the mice [1] | concentration up to which no toxicity toward clonogenic progenitor bone marrow cells was seen ([2]; colonies scored 7 days after plating) [µM] | concentration without toxicity relative to the IC50 ([2]; fold the IC50) [fold] | cell apoptosis and cell death (SEM cell line) | mCherry positive cells in the bone marrow (P12 xenograft; fold change to the vehicle group) | bioluminescence (disease burden) (P12 xenograft; oral gavage twice a day for 18 days) | total Rac levels (Rac) | Rac activation (Rac; pull down) | IC50 [3] [µM] | PDE6D/ARL2/3-dependent trafficking of RAS [4] | apoptosis [5]
O=C(CCc1nnc(CCc2c[nH]c3ccccc23)o1)N1CCN(c2ccc(F)cc2)CC1 [Compound 1, 1-[4-(4-fluorophenyl)piperazin-1-yl]-3-{5-[2-(1H-indol-3-yl)ethyl]-1,3,4-oxadiazol-2-yl}propan-1-one] | relatively stable over the course of treatment | ~100 | > 100 | caused cells apoptosis and cell death in the SEM cell line in a dose-dependent manner | effectively inhibit proliferation | significantly reduced the bioluminescence | no significant effect on total Rac levels | significant reduction of Rac activation; also recorded: dose dependent reduction of Rac activation | 0.8 to 7 |  | 
CCc1ccc(CN(C)C(=O)CCc2nnc(CCc3c[nH]c4ccccc34)o2)cc1 [Compound 5] |  |  |  |  |  |  |  |  |  | affected PDE6D/ARL2/3-dependent trafficking of RAS | induced apoptosis
